# Assay results taken from patent US7722863B2, “Use of granzyme b as an hsp70/hsp70 peptide dependent inducer of apoptosis in tumor cells” (Multimmune GmbH, priority 2002, dated 2010).
# “And” between values parts separate entries of the source, which are not always exact repeats. Equal entries are not always repeated.
# What was measured:
# Assay type in all cases: cell-based, human
# CX− tumor cells [1] = assay: DAPI staining of nuclear DNA fragmentation; conditions: 24 h, camptothecin 4 μg/ml or granzyme B 6 ng/ml
# Procedure: (§1) DAPI-staining: Methanol/aceton fixed cells (0.1×10^6 cells/100 μl) were incubated with 0.5 μg/μl 4,6-diamino-2-phenylindole (DAPI) in PBS/glycerol (3:1), for 15 min in the dark. Following washing in PBS the cells were mounted with Fluorescent Mounting Medium (Dako, Glostrup, Denmark) and than analysed for fluorescence using a Zeiss model Axioscop 2 scanning microscope (Zeiss Jena, Germany) equipped with a 40× objective and standard filters. Apoptosis was visualized with DAPI-staining in 50 cells, each. Images were treated by multiplicative shading correction using software Axiovision (Zeiss Vision Jena, Germany).
# Colo− tumor cells = assay: DAPI staining of nuclear DNA fragmentation; conditions: 24 h, camptothecin 4 μg/ml or granzyme B 6 ng/ml
# Procedure: as §1
# Colo+ tumor cells = assay: DAPI staining of nuclear DNA fragmentation; conditions: 24 h, camptothecin 4 μg/ml or granzyme B 6 ng/ml
# Procedure: as §1
# CX+ tumor cells [2] = assay: DAPI staining of nuclear DNA fragmentation; conditions: 24 h, camptothecin 4 μg/ml or granzyme B 6 ng/ml
# Procedure: as §1
# CX− tumor cells [3] = assay: Cytochrome c release, quantitative immunoassay; conditions: camptothecin 4 μg/ml or granzyme B 6 ng/ml, 24 h
# Procedure: (§2) Cytochrome c release: Cytochrome c release was determined using a quantitative immunoassay; (DCDCO, R&D Systems, Wiesbaden, Germany). Briefly, either untreated, camptothecin (4 μg/ml) or granzyme B (6 ng/ml) treated CX+ and CX− cells (1.5×10^6/ml) were washed in PBS and treated with lysis buffer for 1 h at room temperature. Following centrifugation at 1,000 g for 15 min supernatants were removed and 200 μl of a 1:100, 1:250, and a 1:500 dilution was used for a sandwich ELISA. Following incubation with substrate solution in the dark for 30 min the reaction was stopped. The optical density of each well was determined on an ELISA reader at 450 nm. The amount of cytochrome c was determined according to a calibration curve.
# (§3) As an additional test for apoptotic cell death, cytochrome c release was measured following incubation of CX+ and CX− cells with granzyme B for 24 h. As summarized in Table I, following incubation with granzyme B (6 ng/ml) for 24 h, cytochrome c concentration was elevated from 0.382 mg/ml to 0.690 mg/ml (1.8-fold) in CX+ cells. […] It was propose that the trigger of apoptosis by granzyme B is mediated via the extracellular exposed Hsp70 epitope TKD.
# CX+ tumor cells [4] = assay: Cytochrome c release, quantitative immunoassay; conditions: camptothecin 4 μg/ml or granzyme B 6 ng/ml, 24 h
# Procedure: as §2, §3
# [5] = test system: Hsp70 membrane-positive CX+ tumor subline; assay: Cell surface binding and uptake of granzyme B (fluorescence microscopy, flow cytometry)
# [6] = test system: Hsp70 membrane-positive CX+ cells; assay: Annexin V-FITC apoptosis assay (flow cytometry); conditions: for apoptosis in CX+ cells / amount of Annexin V-FITC positively stained CX+ cells / fold increase of Annexin V-FITC positively stained CX+ cells: camptothecin 4 μg/ml or granzyme B 6 ng/ml; for fold increase of Annexin V-FITC positively stained CX+ cells: versus untreated
# Procedure: (§4) Exponentially growing tumor cells (day 1 after cell passage) were used for granzyme B, camptothecin treatment and as targets in cytotoxicity assays.
# (§5) Stock solutions of camptothecin (4 mg/ml, Sigma, Munich, Germany) were diluted in DMSO and stored at 4° C. in the dark. Granzyme B (6 ng/ml, Hölzel Diagnostics, Cologne, Germany) solutions were freshly prepared directly before usage. Exponentially growing cells (0.5-1.5×10^6/ml) were incubated either with camptothecin at a final concentration of 4 μg/ml or with purified, enzymatically active granzyme B (10 ng/ml, 1 μg/ml, 2 μg/ml; 4 μg/ml) (Shi et. al. (2000) Methods in Enzymology 322, 125) for 10 min, and 30 min either at 4° C. or at 37° C. After washing in RPMI-1640 medium binding and uptake was determined in nonpermeabilized and permeabilized tumor cells by flow cytometry and fluorescence microscopy on a Axioscop 25 scanning microscope (Zeiss, Jena, Germany) equipped with a 40× objective and standard filters. Images were treated by multiplicative shading correction using the software Axiovison (Zeiss Vison, Jena, Germany). Granzyme B was visualized in red by using the HC2-PE antibody.
# (§6) Apoptotic Cell Death was Determined after Incubation of Tumor Cells with 6 ng/ml Granzyme B for 4 h, 12 h, and 24 h at 37° C. and Washing in RPMI-1640 Medium by Different Apoptosis Assays, as Described Below. Apoptosis Assays
# (§7) Annexin V-FITC staining: Briefly, cells were washed twice in Hepes buffer containing 5 mM CaCl2 and incubated with Annexin V-FITC (Roche) for 10 min at room temperature. Annexin V-FITC positively stained cells were measured on a FACSCalibur flow cytometer (Becton Dickinson, Heidelberg, Germany).
# (§8) The preceding findings posed the question whether purified granzyme B can induce apoptosis of tumor cells that present Hsp70 on their cell surface. […] As a positive control for apoptosis all cell types were incubated with the topoisomerase inhibitor camptothecin at a concentration of 4 μg/ml. Apoptosis was determined by Annexin V-FITC staining measured by FACS (FACSCalibur, Becton Dickinson, Heidelberg, Germany), DAPI staining and mitochondrial cytochrome c release. Apoptosis was not detected in CX+ and CX− cells incubated with camptothecin (cam) or granzyme B (grB) for 4 h incubation (FIG. 3A). […] It appeared that the colon carcinoma sublines CX+/CX− are better protected towards a camptothecin-mediated cell death as compared to the pancreas carcinoma sublines Colo+/Colo−.
# [7] = test system: Hsp70 membrane-negative CX− cells; assay: Annexin V-FITC apoptosis assay (flow cytometry); conditions: for apoptosis in CX− cells: camptothecin 4 μg/ml or granzyme B 6 ng/ml
# Procedure: as §4, §5, §6, §7, §8
# [8] = test system: Hsp70 membrane-negative Colo− cells; assay: Annexin V-FITC apoptosis assay (flow cytometry); conditions: 12 h and 24 h; camptothecin 4 μg/ml or granzyme B 6 ng/ml
# Procedure: as §4, §5, §6, §7, §8
# [9] = test system: Hsp70 membrane-positive Colo+ cells; assay: Annexin V-FITC apoptosis assay (flow cytometry); conditions: granzyme B 6 ng/ml
# Procedure: as §4, §5, §6, §7, §8
# [10] = test system: CX+/CX− and Colo+/Colo− tumor cells; assay: Light microscopical analysis of plastic adherence (anoikes); conditions: 24 h post-treatment with granzyme B; Hsp70 membrane-positive and -negative lines
# Procedure: In order to exclude apoptosis initiated by anoikes light microscopical analysis of untreated (control), camptothecin (cam) and granzyme B (grB) treated CX+/CX− and Colo+/Colo− tumor cells were performed. […] Regarding these findings we ruled out the possibility that anoikes might be a possible mechanism for the induction of apoptotic cell death in Hsp70 membrane-positive tumor sublines. It is important to note that all apoptosis assays were determined within the adherent cell population following a short term (<1 min) trypsinization.
substance,measurement,setting,value
granzyme B,nuclear DNA fragmentation (DAPI),CX− tumor cells [1],no DNA fragmentation was observed
same,nuclear DNA fragmentation (DAPI),Colo− tumor cells,no DNA fragmentation was observed
same,nuclear DNA fragmentation (DAPI),Colo+ tumor cells,DNA fragmentation was detected
same,nuclear DNA fragmentation (DAPI),CX+ tumor cells [2],DNA fragmentation was detected
same,cytochrome c fold increase,CX− tumor cells [3]; control 1.0,0.9 fold
same,cytochrome c,"CX− tumor cells [3]; mean of 4 experiments ± S.E., control 0.452 ± 0.02",0.425 mg/mL and 0.425 ± 0.075 mg/mL
same,cytochrome c fold increase,CX+ tumor cells [4]; control 1.0,1.8 fold
same,cytochrome c,"CX+ tumor cells [4]; mean of 4 experiments ± S.E., control 0.382 ± 0.02",0.690 mg/mL and 0.690 ± 0.08 mg/mL
same,"granzyme B uptake, flow cytometry of permeabilized cells","[5]; 1 μg/ml granzyme B, 30 min, 37° C.",faint shift of the granzyme B peak to the right
same,"granzyme B uptake, flow cytometry of permeabilized cells",[5]; 2 μg/ml and 4 μg/ml granzyme B,dose-dependent increase in granzyme B uptake
same,granzyme B cell surface binding (immunofluorescence),"[5]; 15 min at 4° C., granzyme B 2 μg/ml","typical cell surface staining, was detected"
same,"granzyme B uptake, cytoplasmic staining (immunofluorescence)","[5]; temperature shift 4° C. to 37° C., 30 min",resulted in uptake of granzyme B
same,apoptosis in CX+ cells,[6]; 4 h incubation,not detected
same,amount of Annexin V-FITC positively stained CX+ cells,"[6]; 12 h, untreated 16.6%",20.9%
same,fold increase of Annexin V-FITC positively stained CX+ cells,[6]; 12 h,1.3 fold
same,apoptosis in CX+ cells,[6]; 12 h and 24 h,apoptosis was observed
same,amount of Annexin V-FITC positively stained CX+ cells,"[6]; 24 h, untreated 18%",30.2%
same,fold increase of Annexin V-FITC positively stained CX+ cells,[6]; 24 h,1.8 fold
same,fold increase of Annexin V-FITC positively and PI negatively stained CX+ cells,"[6]; 24 h granzyme B, representative analysis FIG. 3B",1.7 fold
same,amount of Annexin V-FITC positively and propidium iodide (PI) negatively stained CX+ cells,"[6]; 24 h granzyme B, representative analysis FIG. 3B, untreated control 18%",30%
same,apoptosis in CX− cells,[7]; 4 h incubation,not detected
same,apoptosis in CX− cells,[7]; 12 h and 24 h,neither a 12 h nor a 24 h treatment with granzyme B induces apoptosis
same,amount of apoptotic CX− cells before and after treatment,"[7]; 24 h granzyme B, FIG. 3B",remained unaltered
same,apoptosis in Colo− cells,[8],neither a 12 h nor a 24 h treatment with granzyme B induces apoptosis
same,fold increase in the amount of Annexin V-FITC positively stained Colo+ cells,[9]; 12 h,1.3 fold
same,fold increase in the amount of Annexin V-FITC positively stained Colo+ cells,[9]; 24 h,2.4 fold
same,loss in plastic adherence,[10],neither Hsp70 membrane-positive nor -negative tumor cell lines exhibited any signs of loss in plastic adherence
